Reference: PMC4098076 (Nature, 2014)

Target: T1, aryl hydrocarbon receptor (AhR) (Mus musculus, UniProt P30561)
T1 sequence (P30561 10-848): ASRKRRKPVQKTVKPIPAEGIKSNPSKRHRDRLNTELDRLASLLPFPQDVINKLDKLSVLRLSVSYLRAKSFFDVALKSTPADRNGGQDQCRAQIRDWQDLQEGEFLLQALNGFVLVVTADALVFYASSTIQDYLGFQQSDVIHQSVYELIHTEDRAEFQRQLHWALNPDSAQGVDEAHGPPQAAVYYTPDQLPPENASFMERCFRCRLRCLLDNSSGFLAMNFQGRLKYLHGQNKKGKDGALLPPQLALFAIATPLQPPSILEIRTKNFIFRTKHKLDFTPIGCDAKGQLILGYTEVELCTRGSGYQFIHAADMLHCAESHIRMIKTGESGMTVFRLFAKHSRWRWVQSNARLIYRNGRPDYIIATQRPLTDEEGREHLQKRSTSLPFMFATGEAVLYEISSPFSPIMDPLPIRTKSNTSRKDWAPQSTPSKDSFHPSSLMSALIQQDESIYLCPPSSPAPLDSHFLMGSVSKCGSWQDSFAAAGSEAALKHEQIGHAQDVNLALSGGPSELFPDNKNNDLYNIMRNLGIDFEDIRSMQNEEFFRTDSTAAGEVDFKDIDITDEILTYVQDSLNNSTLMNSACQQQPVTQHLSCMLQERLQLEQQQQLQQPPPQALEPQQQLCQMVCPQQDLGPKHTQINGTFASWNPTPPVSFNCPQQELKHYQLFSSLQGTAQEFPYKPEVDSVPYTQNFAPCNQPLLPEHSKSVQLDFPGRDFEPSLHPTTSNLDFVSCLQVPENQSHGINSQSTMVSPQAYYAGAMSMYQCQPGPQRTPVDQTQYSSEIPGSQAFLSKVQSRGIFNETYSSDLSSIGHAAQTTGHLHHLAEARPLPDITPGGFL
Assay: radioligand competition with [3H]TCDD
Assay type: binding

Ki: 21.6 µM
SMILES: Nc1ccccc1C(=O)C[C@H](N)C(=O)O [L-kynurenine]
